Among the test systems are CAKI-1 renal; EKVX NSCLC; HCT-116 colon; HOP-92 NSCLC; MDA-MB-231 breast; MDA-MB-435; NCI-H460 lung; UACC-62 melanoma.
Holding throughout (assay): NCI anticancer screen, dose series, 48 h

For eleven compounds, GI50 and TGI results are on record in PubChem BioAssay (NCI).

SMILES strings stand for the structures. Where “and” joins values, the source holds several entries; their conditions need not be identical. Identical values can stand only once.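 Each compound was tested at five concentrations against cells in 96-well plates for 48 hours. GI50 marks 50% less growth. The concentration for full growth arrest is given as TGI.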 Some results are limits rather than exact numbers.

Consider `O=C(Nc1cc(C(F)(F)F)ccc1Cl)c1ccc(NC2=C(Cl)C(=O)N(Cc3ccccc3)C2=O)cc1`, for which the GI50 in the experiment on CAKI-1 renal is 42.6 µM; in the experiment with EKVX NSCLC it was 46.6 µM; in the experiment on HCT-116 colon, 17.2 µM; in the experiment on HOP-92 NSCLC, 15.7 µM; in the experiment with MDA-MB-231 breast, 18.8 µM; in the experiment on MDA-MB-435 it was 29.5 µM. Besides, the GI50 with NCI-H460 lung is 34.3 µM; with UACC-62 melanoma, 16.7 µM. Moreover, the TGI with CAKI-1 renal is > 100 µM; in the experiment on EKVX NSCLC it was > 100 µM; in the experiment with HCT-116 colon, > 100 µM; in the experiment with HOP-92 NSCLC, 56.3 µM; in the experiment on MDA-MB-231 breast, 69.2 µM; in the experiment with MDA-MB-435, > 100 µM. Moreover, the TGI in the experiment with NCI-H460 lung was > 100 µM; in the experiment on UACC-62 melanoma, 38.9 µM.

Regarding `CC[n+]1oc(C(=O)c2ccc(Cl)cc2)c(-c2ccccc2)c1-c1ccccc1.[Cl][Fe]([Cl])([Cl])[Cl]`, the GI50 in the experiment on EKVX NSCLC was 30.4 µM; in the experiment with HOP-92 NSCLC it was 27.1 µM; with MDA-MB-231 breast it was 36.5 µM; with MDA-MB-435, 22.3 µM; in the experiment on NCI-H460 lung it was 43.2 µM; with UACC-62 melanoma, 63.8 µM. Further, the TGI in the experiment on EKVX NSCLC is > 100 µM; in the experiment on HOP-92 NSCLC it was 62.9 µM; in the experiment on MDA-MB-231 breast, > 100 µM; with MDA-MB-435 it was 80.5 µM; in the experiment on NCI-H460 lung it was > 100 µM; in the experiment with UACC-62 melanoma, > 100 µM.

For the compound `O=S(=O)(NCCNc1nccc(-c2c(-c3ccc(F)c(O)c3)nc3sccn23)n1)c1ccc(F)cc1`, the GI50 in the experiment with CAKI-1 renal was 4.02 µM; with EKVX NSCLC, 5.42 µM; in the experiment with HOP-92 NSCLC it was 1.3 µM; in the experiment on MDA-MB-231 breast, 2.23 µM; in the experiment with MDA-MB-435, 0.824 µM; with NCI-H460 lung, 3.43 µM. Further, the GI50 with UACC-62 melanoma was 0.587 µM. Besides, the TGI with CAKI-1 renal is 31.6 µM; in the experiment with EKVX NSCLC, 60.6 µM; in the experiment with HOP-92 NSCLC it was 6.86 µM; in the experiment with MDA-MB-231 breast, > 100 µM; with MDA-MB-435, 4.99 µM; in the experiment on NCI-H460 lung, 17.2 µM. In the experiment on UACC-62 melanoma, the TGI is 9.82 µM.

For `[C](#Cc1ccccc1)[Hg][C]#Cc1ccccc1`, the GI50 in the experiment on CAKI-1 renal was 20 µM; with EKVX NSCLC it was > 100 µM; in the experiment with HCT-116 colon it was 72.5 µM; in the experiment on HOP-92 NSCLC, 21.1 µM; in the experiment with MDA-MB-231 breast, 20.8 µM; in the experiment with MDA-MB-435, 43.2 µM. In addition, the GI50 was 86.2 µM with NCI-H460 lung and 24.3 µM in the experiment on UACC-62 melanoma. Moreover, the TGI in the experiment on CAKI-1 renal was 41.7 µM; in the experiment on EKVX NSCLC, > 100 µM; in the experiment on HCT-116 colon it was > 100 µM; in the experiment with HOP-92 NSCLC, 47.5 µM; with MDA-MB-231 breast, 44.8 µM; in the experiment with MDA-MB-435, > 100 µM. Besides, the figures for the TGI with NCI-H460 lung and with UACC-62 melanoma were > 100 µM and 53.7 µM, respectively.

With `Cc1[nH]nc(C(F)(F)F)c1N=NN(C)C`, the TGI with CAKI-1 renal is 3.56 µM; in the experiment with EKVX NSCLC, 11.5 µM; in the experiment on HCT-116 colon, 4.99 µM; in the experiment with HOP-92 NSCLC, 23.5 µM; with MDA-MB-231 breast, 25.4 µM; in the experiment on MDA-MB-435, 32.7 µM. For the same compound, the TGI in the experiment with NCI-H460 lung was 26.6 µM; in the experiment with UACC-62 melanoma it was 20.6 µM.

On to `COc1cc2c(c(OC)c1OC)-c1ncc3c(OC)c(OC)c(OC)cc3c1C2`, for which the GI50 in the experiment on CAKI-1 renal was 23.9 µM; with EKVX NSCLC, 32.7 µM; in the experiment with HCT-116 colon, 27.8 µM; in the experiment on HOP-92 NSCLC it was 52.1 µM; with MDA-MB-231 breast, 26.2 µM; in the experiment with MDA-MB-435, 23 µM. Moreover, the GI50 is 32.6 µM in the experiment with NCI-H460 lung and 21.1 µM in the experiment on UACC-62 melanoma. Also, the TGI with CAKI-1 renal is 83.5 µM; in the experiment on EKVX NSCLC, > 100 µM; in the experiment on HCT-116 colon, > 100 µM; with HOP-92 NSCLC it was > 100 µM; with MDA-MB-231 breast it was 86.8 µM; with MDA-MB-435, 73.5 µM. The TGI in the experiment with NCI-H460 lung was > 100 µM; in the experiment with UACC-62 melanoma, 49.3 µM.

For the compound `COc1cc(C2SCCCCCCCCCCSC(c3ccc(O)c(OC)c3)SCCCCCCCCCCS2)ccc1O` (stereo not given), the TGI in the experiment with CAKI-1 renal, in the experiment on EKVX NSCLC, in the experiment with HCT-116 colon, with HOP-92 NSCLC, with MDA-MB-231 breast and in the experiment on MDA-MB-435 was > 100 µM throughout. The TGI with UACC-62 melanoma was > 100 µM.

As to `NC(=O)N/N=C(/CC1C(=O)Oc2ccccc21)c1ccccc1O` (stereo not given), the TGI with CAKI-1 renal, in the experiment on EKVX NSCLC, in the experiment on HCT-116 colon, with HOP-92 NSCLC, in the experiment on MDA-MB-231 breast and in the experiment with MDA-MB-435 was > 100 µM in each case. Also, the TGI in the experiment on NCI-H460 lung is > 100 µM; in the experiment on UACC-62 melanoma it was 63.6 µM.

Consider `CC1CCC2(NC1)OC1CC3C4CC=C5CC(O)CCC5(C)C4CCC3(C)C1C2C` (stereo not given), for which the GI50 with CAKI-1 renal is 25.5 µM and 11.2 µM; in the experiment on MDA-MB-435 it was 48.7 µM and 16.6 µM. Besides, the TGI was 71.6 µM and 33 µM in the experiment on CAKI-1 renal; > 100 µM in the experiment with EKVX NSCLC; 53.5 µM and > 68.1 µM in the experiment on HCT-116 colon; 49.5 µM and 46.2 µM with HOP-92 NSCLC; 51.7 µM and 37 µM with MDA-MB-231 breast; > 100 µM with MDA-MB-435. Further, the TGI in the experiment with NCI-H460 lung was > 100 µM; with UACC-62 melanoma, 65.1 µM and 50.4 µM.

On to `CCOC(=O)Nc1nc2ccc(OC)cc2s1`, for which the GI50 in the experiment on CAKI-1 renal was > 100 µM; with HCT-116 colon, > 100 µM; with HOP-92 NSCLC it was > 100 µM; in the experiment on MDA-MB-231 breast, > 100 µM; in the experiment on MDA-MB-435 it was 4.18 µM; in the experiment on NCI-H460 lung, > 100 µM. For the same compound, the GI50 in the experiment with UACC-62 melanoma was > 100 µM. For the same compound, the TGI with CAKI-1 renal, in the experiment with HCT-116 colon, with HOP-92 NSCLC, with MDA-MB-231 breast, in the experiment with MDA-MB-435 and in the experiment on NCI-H460 lung was > 100 µM in each case. Further, the TGI with UACC-62 melanoma was > 100 µM.

`COc1ccc(-c2cs/c(=N\N=C\c3ccc(O)cc3O)n2/N=C/c2ccc(O)cc2O)cc1`: the GI50 in the experiment on EKVX NSCLC was 2.32 µM; in the experiment on HCT-116 colon, 1.57 µM; in the experiment on HOP-92 NSCLC, 2.38 µM; in the experiment with MDA-MB-231 breast, 2.04 µM; with MDA-MB-435, 1.69 µM; in the experiment with NCI-H460 lung, 2.01 µM. In addition, the GI50 in the experiment on UACC-62 melanoma is 1.76 µM. For the same compound, the TGI with EKVX NSCLC came out at 6.73 µM; in the experiment with HCT-116 colon, 3.04 µM; with HOP-92 NSCLC, 6.51 µM; in the experiment on MDA-MB-231 breast it was 5.51 µM; with MDA-MB-435, 3.48 µM; in the experiment on NCI-H460 lung, 4.43 µM. Further, in the experiment on UACC-62 melanoma, the TGI was 3.73 µM.
